{"source": "paper PMC12616682", "about": "“Identification of a Highly Cooperative PROTAC Degrader Targeting GTP-Loaded KRAS(On) Alleles” (Journal of the American Chemical Society, 2025)", "key": {"KRAS^G12D in GP5d cells": {"target": "T1, KRAS^G12D in GP5d cells (Homo sapiens, UniProt P01116, G12D)", "T1 construct": "comparison of the degradative effect on endogenous KRAS; host or cells: GP5d", "assay": "Endogenous KRAS degradation by Western blot in GP5d cells", "assay_type": "cell-based"}, "Calu-6 cells": {"system": "Calu-6 cells", "assay": "CellTiter-Glo anti-proliferation, Calu-6", "assay_type": "cell-based, human", "settings": "Calu-6 (Q61K)"}, "KRAS^Q61L in SW948 cells": {"target": "T2, KRAS^Q61L in SW948 cells (Homo sapiens, UniProt P01116, Q61L)", "T2 construct": "host or cells: SW948", "assay": "Endogenous KRAS degradation by Western blot in SW948 cells", "assay_type": "cell-based"}, "[1]": {"target": "T3, HiBiT-KRAS^G12R in Cal-62 cells (Homo sapiens, UniProt P01116, G12R)", "T3 construct": "generated a HiBiT-KRAS^G12R Cal-62 knock-in cell line using the CRISPR Cas9 technology; endogenous in cells; host or cells: Cal-62 HiBiT KRAS G12R (in-house CRISPR knock-in)", "assay": "HiBiT degradation assay, HiBiT-KRAS^G12R Cal-62 cells", "assay_type": "cell-based", "settings": "Cal-62 (HiBitG12R)", "protocol": "(Gibco) with 10% FBS in a humidiﬁed cell incubator at 37 °C and 5% CO2.\nPlasmids pSpCas9 BB-2A-GFP (PX458) containing gRNA, Cas9 and GFP sequences and […] plasmid containing ssDNA donor template were purchased from Genscript. Cal-62 cells were plated at 5x10^5 cells in a 6-well plate and left to adhere overnight. The next day, the transfection plasmids (0.5 µg of each gRNA plasmid and 0.5 µg of donor template) were diluted in Opti-MEM, combined with Lipofectamine solution in Opti-mem according to the manufacturer’s protocol and incubated for 20 min at RT. The mixture was added to the cells and incubated for 24 h. The next day the media was exchanged, and the cells were left to incubate for another 24 h. GFP positive cells were single-cell sorted into 96-well plates using ﬂuorescence-activated cell sorting (FACS) at the Flow Cytometry and Cell Sorting Facility (University of Dundee). Sorted cells were left to grow in conditioned media supplemented with 20% FBS for 3 weeks. Formed colonies were tested for the expression of HiBiT KRAS using the Nano-Glo® HiBiT Lytic system (Promega). The positive clones were additionally tested for insertion of the HiBiT tag by western blotting for KRAS (mouse anti-KRAS, LsBio) and HiBiT (mouse anti-HiBiT, Promega) and the insert was further conﬁrmed by Sanger sequencing. […]\ngRNA1: 5’ […] 3’, gRNA2: 5’ […] 3’, gRNA 3: 5’ […]\ntemplate DNA: 5’ caatccagctt tatttgacac tcattctctc aactctcatc tgattcttac tgttaatatt tatccaagag aactactgcc atgatgcttt aaaagttttt ctgtagctgt tgcatattga cttctaacac ttagaggtgg gggtccacta ggaaaactgt aacaataaga gtggagatag ctgtcagcaa cttttgtgag ggtgtgctac agggtgtaga gcactgtgaa gtctctacat gagtgaagtc atgatatgat cctttgagag cctttagccg ccgcagaaca gcagtctggc tatttagata gaacaacttg attttaagat aaaagaactg tctatgtagc atttatgcat ttttcttaag cgtcgatgga ggagtttgta aatgaagtac agttcattac gatacacgtc tgcagtcaac tggaattttc atgattgaat tttgtaaggt attttgaaat aatttttcat ataaaggtga gtttgtatta aaaggtactg gtggagtatt tgatagtgta ttaaccttat gtgtgacatg ttctaatata gtcacatttt cattattttt attataaggc ctgctgaaa […]\natg[…]act gaGtaCaaGctCgtAgtagttggag ctCgtggc gta ggc aag agt gcc ttA acAatCcaActaattcagaatcat tttgtggacg aatatgatcc aacaatagag gtaaatcttg ttttaatatg catattactg gtgcaggacc attctttgat acagataaag gtttctctga ccattttcat gagtacttat tacaagataa ttatgctgaa agttaagtta tctgaaatgt accttgggtt tcaagttata tgtaaccatt aatatgggaa ctttactttc cttgggagta tgtcagggtc catgatgttc actctctgtg cattttgatt ggaagtgtat ttcagagttt cgtgagaggg tagaaatttg tatcctatct ggacctaaaa gacaatcttt ttattgtaac ttttattttt atgggtttct tggtattgtg acatcatatg taaaggttag atttaattgt actagtgaaa tataattgtt tgatggttga tttttttaaa cttcatcagc agtattttcc tatcttcttc tcaacattag agaacctaca actaccggat aaattttaca aaatgaatta tttgcctaag gtgtggttta tataaaggta ctattaccaa ctttaccttt gctttgttgt catttttaaa tttactcaag gaaatactag gatttaaaaa aaaattcctt 3’\nDegradation via Detection of Split Nanoluciferase (HiBiT)\nTo assess PROTAC-mediated degradation of HiBiT-tagged KRAS constructs, cells were seeded at […]\nfurther incubated at 37 °C for 4 and 24 h. Following incubation, 20 µL per well of Promega Nano-Glo® HiBiT lytic detection reagent mix (Promega Nano-Glo® HiBiT Lytic Detection System […]\nplotted as percent of DMSO control."}, "[2]": {"target": "T3, HiBiT-KRAS^G12R in Cal-62 cells", "assay": "Kinetic degradation (live mode), Cal-62 HiBiT KRAS^G12R cells", "assay_type": "cell-based", "settings": "Cal62-HiBit (G12R)"}, "[3]": {"target": "T4, HiBiT-KRAS^G12D in GP5d cells (Homo sapiens, UniProt P01116, G12D)", "T4 construct": "host or cells: GP5d HiBiT KRAS G12D", "assay": "HiBiT degradation assay, HiBiT-KRAS^G12D GP5d cells", "assay_type": "cell-based", "settings": "for Dmax / DC50: Gp5D (HiBit-G12D)"}, "[4]": {"target": "T5, KRAS^Q61K in Calu-6 cells (Homo sapiens, UniProt P01116, Q61K)", "T5 construct": "host or cells: Calu-6", "assay": "Endogenous KRAS degradation by Western blot in Calu-6 cells", "assay_type": "cell-based", "settings": "Calu-6 (Q61K)"}, "[5]": {"target": "T6, KRAS^G12R in Cal-62 cells (Homo sapiens, UniProt P01116, G12R)", "T6 construct": "Potent degradation of endogenous KRAS^G12R was achieved by ACBI4 in the Cal-62 cell line; host or cells: Cal-62", "assay": "Endogenous KRAS degradation by Western blot in Cal-62 cells", "assay_type": "cell-based", "settings": "Cal-62 (G12R)"}, "Cal-62 cells": {"system": "Cal-62 cells", "assay": "CellTiter-Glo anti-proliferation, Cal-62", "assay_type": "cell-based, human", "settings": "Homo sapiens, 72 h; Cal-62 (G12R); read-out: CTG 72h Ic50"}, "KRAS^G12R in KP-2 cells": {"target": "T7, KRAS^G12R in KP-2 cells (Homo sapiens, UniProt P01116, G12R)", "T7 construct": "host or cells: KP-2", "assay": "Endogenous KRAS degradation by Western blot in KP-2 cells", "assay_type": "cell-based", "settings": "KP-2 (G12R)"}}, "note": "Like-named read-outs stand apart in the source and are kept apart here.", "data": [{"smiles": "CC(C)C(C(=O)N1C[C@H](O)C[C@H]1C(=O)NCc1ccc2cnn(C)c2c1)n1nnc2c1CCC(CCCN1CCCN(c3nccc(-c4noc([C@@]5(C)CCCc6sc(N)c(C#N)c65)n4)n3)[C@@H](C)C1)C2", "note": "(mixture of isomers) [Compound 4]", "values": [{"measurement": "Dmax", "setting": "KRAS^G12D in GP5d cells; 4 h, read-out: DMax 4h", "result": 83.5, "unit": "%"}, {"measurement": "DC50", "setting": "KRAS^G12D in GP5d cells; 4 h, read-out: Dc50 4h", "result": 68, "unit": "nM"}, {"measurement": "Dmax", "setting": "KRAS^G12D in GP5d cells; 18 h, read-out: DMax 18h", "result": 96.5, "unit": "%"}, {"measurement": "DC50", "setting": "KRAS^G12D in GP5d cells; 18 h, read-out: Dc50 18h", "result": 16, "unit": "nM"}, {"measurement": "CTG 72h Ic50", "setting": "Calu-6 cells", "result": "unstable"}, {"measurement": "Dc50 4h", "setting": "KRAS^Q61L in SW948 cells; 4 h", "result": "unstable"}, {"measurement": "Dmax", "setting": "KRAS^Q61L in SW948 cells; 4 h, read-out: DMax 4h", "result": 49, "unit": "%"}, {"measurement": "Dc50 18h", "setting": "KRAS^Q61L in SW948 cells; 18 h", "result": "unstable"}, {"measurement": "Dmax", "setting": "KRAS^Q61L in SW948 cells; 18 h, read-out: DMax 18h", "result": 50, "unit": "%"}, {"measurement": "Dmax", "setting": "[1]; 4 h, read-out: DMax 4h", "result": 76, "unit": "%"}, {"measurement": "DC50", "setting": "[1]; 4 h, read-out: Dc50 4h", "result": 163, "unit": "nM"}, {"measurement": "Dmax", "setting": "[1]; 24 h, read-out: DMax 24h", "result": 87, "unit": "%"}, {"measurement": "DC50", "setting": "[1]; 24 h, read-out: Dc50 24h", "result": 183, "unit": "nM"}, {"measurement": "1/K (Tau)", "setting": "[2]", "result": 1.972, "unit": "µM"}, {"measurement": "Plateau (degradation rate)", "setting": "[2]", "result": 0.2614, "unit": "min⁻¹"}, {"measurement": "Plateu/ Tau", "setting": "[2]", "result": 2207, "unit": "M⁻¹ s⁻¹"}, {"measurement": "Dmax", "setting": "[3]; 4 h, read-out: DMax 4h", "result": 83, "unit": "%"}, {"measurement": "DC50", "setting": "[3]; 4 h, read-out: Dc50 4h", "result": 14, "unit": "nM"}, {"measurement": "Dmax", "setting": "[3]; 24 h, read-out: DMax 24h", "result": 94, "unit": "%"}, {"measurement": "DC50", "setting": "[3]; 24 h, read-out: Dc50 24h", "result": 4, "unit": "nM"}, {"measurement": "fold improvement in DC50 over 3", "setting": "[3]; HiBiT-KRAS^G12D, 24 h", "result": "~9", "unit": "fold"}, {"measurement": "Dmax", "setting": "[4]; 4 h, read-out: DMax 4h", "result": 25, "unit": "%"}, {"measurement": "DC50", "setting": "[4]; 4 h, read-out: Dc50 4h", "result": 146, "unit": "nM"}, {"measurement": "Dmax", "setting": "[4]; 18 h, read-out: DMax 18h", "result": 72, "unit": "%"}, {"measurement": "DC50", "setting": "[4]; 18 h, read-out: Dc50 18h", "result": 187, "unit": "nM"}, {"measurement": "Dmax", "setting": "[5]; 4 h, read-out: DMax 4h", "result": 64, "unit": "%"}, {"measurement": "DC50", "setting": "[5]; 4 h, read-out: Dc50 4h", "result": 1530, "unit": "nM"}, {"measurement": "Dmax", "setting": "[5]; 18 h, read-out: DMax 18h", "result": 93, "unit": "%"}, {"measurement": "DC50", "setting": "[5]; 18 h, read-out: Dc50 18h", "result": 418, "unit": "nM"}, {"measurement": "IC50", "setting": "Cal-62 cells", "result": 488, "unit": "nM"}, {"measurement": "Dmax", "setting": "KRAS^G12R in KP-2 cells; 4 h, read-out: DMax 4h", "result": 37, "unit": "%"}, {"measurement": "DC50", "setting": "KRAS^G12R in KP-2 cells; 4 h, read-out: Dc50 4h", "result": 6, "unit": "nM"}, {"measurement": "Dmax", "setting": "KRAS^G12R in KP-2 cells; 18 h, read-out: DMax 18h", "result": 70, "unit": "%"}, {"measurement": "DC50", "setting": "KRAS^G12R in KP-2 cells; 18 h, read-out: Dc50 18h", "result": 224, "unit": "nM"}]}]}
